Key:
[1] = molecular target: T1, rat VR1 (Rattus norvegicus, UniProt O35433); assay: [3H]resiniferatoxin (RTX) competition binding assay, VR1-transfected CHO cells
T1 construct: expressed in transfected cells
Protocol: The pUHG102 VR1 plasmid was transfected into CHO cells containing the pTet Off regulatory plasmid (Clontech). In these cells, expression of the VR1 is repressed in the presence of tetracycline but is induced upon removal of the antibiotic. Stable clones were isolated in culture medium containing puromycin (10 μg/mL) and maintained in HAM F12 medium supplemented with tetracycline (1 μg/mL), 5 μg/ml geniticin, 25 mM HEPES, 10% FBS. Cells utilized for assays were grown in culture medium without antibiotic for 48 h before use. Cells were seeded in T75 cell culture flasks in media without antibiotics and grown to approximately 90% confluence. The flasks were then washed with PBS and harvested in 0.25% trypsin, 1 mM EDTA. The cells were pelleted by gentle centrifugation and stored at −20° C. until assay.
Competition Binding Assay
Binding studies with [^3H]resiniferatoxin (RTX) were carried out as described previously with minor modifications (Szallasi et al., 1992). Binding assay mixtures were set up on ice and contained 50-100 pM [^3H]RTX, various concentrations of competing ligands, 0.25 mg/mL BSA (Cohn fraction V), and about 5×10^5 VR1-transfected cells. The final volume was adjusted to 350 μL with DPBS with Ca^2+ and Mg^2+ and 0.25 mg/mL bovine serum albumin. Non-specific binding was determined in the presence of 100 nM nonradioactive RTX. The binding reaction was initiated by transferring the assay mixtures to a 37° C. water bath and was terminated after a 60 min incubation period by cooling the tubes on ice. To reduce non-specific binding, 200 μg/ml α-glycoprotein was added. Membrane-bound RTX was then separated from the free by pelleting the membranes in a Beckman 12 benchtop centrifuge (15 min, maximal velocity), the tips of the tubes containing the pellets were cut off, and the radioactivity was determined by scintillation counting. Equilibrium binding parameters (Ki and cooperativity) were determined by fitting the Hill equation to the measured values with the aid of the program MicroCal Origin 6.0.
(§1) Initial stocks were dissolved in DMSO. For the binding assays, compounds were diluted in with DPBS with Ca^2+ and Mg^2+ and 0.25 mg/mL bovine serum albumin. For the calcium uptake assays, compounds were diluted in DMEM with 0.25 mg/mL bovine serum albumin.

[2] = molecular target: T1, rat VR1; assay: 45Ca2+-uptake assay in CHO/VR1 cells, antagonism of capsaicin-stimulated uptake; format: cell-based; details: 45Ca2+ uptake stimulated by 50 nM capsaicin
Protocol: as §1
Molecules were characterized to determine whether they were full agonists, partial agonists, or antagonists. For studies of ^45Ca^2+ uptake by CHO/VR1 cells (Tet-off cells), the cells were plated in 24-well plates to yield a cell density 20-40% of that required to produce confluence. The next day the medium was changed to remove the tetracycline and induce VR1 expression. Experiments were performed approximately 36-40 hours after induction. For ^45Ca^2+ uptake assay, cells were incubated for 5 min at 37° C. in a total volume of 400 μL of serum free DMEM (containing 1.8 mM CaCl2) in the presence of 0.25 mg/mL BSA (Sigma), 1 μCi/mL ^45Ca^2+ (5-30 Ci/g from ICN, CA), and increasing concentrations of the compound to be tested. Immediately after the incubation, extracellular ^45Ca^2+ was removed by washing the cells three times with cold DPBS (containing 1.8 mM CaCl2). Then 400 μl RIPA buffer (50 mM Tris pH 7.4; 150 mM NaCl; 1% Triton X-100; 0.1% SDS; 1% sodium deoxycholate) was added to each well in order to lyse the cells. Plates were shaken slowly for 20 min; then 306 μL of cell lysate was transferred from each well into a scintillation vial and radioactivity was determined by scintillation counting. For each data point in each experiment, four wells were assayed. Data from these experiments were analyzed by computer fit to the Hill equation. At least 3 separate experiments were carried out for each compound. In order to determine antagonist activity, studies were performed in exactly the same fashion with the exception that 50 nM capsaicin was added to the assay mixture to stimulate ^45Ca^2+ uptake.

[3] = competition with [3H]RTX, rat VR1 in CHO cells, read-out: Ki (nM) Binding Affinity

T1 sequence (O35433 whole entry): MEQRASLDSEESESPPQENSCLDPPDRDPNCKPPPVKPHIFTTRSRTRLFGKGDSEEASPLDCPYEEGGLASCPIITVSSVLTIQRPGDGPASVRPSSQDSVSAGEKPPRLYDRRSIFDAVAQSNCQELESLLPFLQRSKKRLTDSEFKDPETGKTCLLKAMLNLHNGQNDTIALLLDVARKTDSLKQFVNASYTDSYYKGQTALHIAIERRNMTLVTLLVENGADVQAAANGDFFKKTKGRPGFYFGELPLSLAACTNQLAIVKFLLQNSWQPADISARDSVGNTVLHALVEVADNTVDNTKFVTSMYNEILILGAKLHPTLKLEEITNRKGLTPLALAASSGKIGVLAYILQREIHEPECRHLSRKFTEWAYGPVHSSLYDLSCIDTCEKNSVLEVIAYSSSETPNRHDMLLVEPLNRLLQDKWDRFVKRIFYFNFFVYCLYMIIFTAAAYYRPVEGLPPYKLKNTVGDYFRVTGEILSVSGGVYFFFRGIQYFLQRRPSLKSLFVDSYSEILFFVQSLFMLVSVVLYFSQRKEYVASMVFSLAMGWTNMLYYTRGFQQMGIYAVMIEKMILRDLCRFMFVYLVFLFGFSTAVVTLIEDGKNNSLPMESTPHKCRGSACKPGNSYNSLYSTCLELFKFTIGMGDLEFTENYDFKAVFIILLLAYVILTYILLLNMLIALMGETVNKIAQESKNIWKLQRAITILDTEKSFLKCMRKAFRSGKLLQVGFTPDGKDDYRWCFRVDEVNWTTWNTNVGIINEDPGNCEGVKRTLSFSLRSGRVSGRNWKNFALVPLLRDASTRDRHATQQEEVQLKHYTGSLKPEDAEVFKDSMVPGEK

Compound `CC(C(=O)NCC(COC(=O)C(C)(C)C)Cc1ccc(C(C)(C)C)cc1)c1ccc(NS(C)(=O)=O)c(Cl)c1` (stereo not drawn) [5-8, N-[2-(4-tert-Butylbenzyl)-3-pivaloyloxypropyl]-2-[3-chloro-4-(methylsulfonylamino)phenyl]propionamide] has a Ki [1, 3] of 3.62 nM, a Ki [2] of 12.3 nM and a melting point of 142 to 144 °C.

Compound `C[C@@H](C(=O)NC[C@@H](COC(=O)C(C)(C)C)Cc1ccc(C(C)(C)C)cc1)c1ccc(NS(C)(=O)=O)c(F)c1` [6-11, N-[(2S)-2-(4-t-Butylbenzyl)-3-(pivaloyloxy)propyl]-(2R)-2-[3-fluoro-4-(methylsulfonylamino)phenyl]propionamide] has a Ki [1, 3] of 63.8 nM, a Ki [2] of 142 nM and a melting point of 44 to 46 °C.

For `Cc1ccc(CC(CNC(=O)C(C)c2ccc(NS(C)(=O)=O)c(F)c2)COC(=O)C(C)(C)C)cc1C` (stereo not drawn) [5-3, 2-[3-Fluoro-4-(methylsulfonylamino)phenyl]-N-[2-(3,4-dimethylbenzyl)-3-pivaloyloxypropyl]propionamide], the Ki [1, 3] was 33.1 nM, the Ki [2] was 10.8 nM and the melting point was 46 to 48 °C.

With `CC(C(=O)NCc1ccc(C(C)(C)C)cc1)c1ccc(NS(C)(=O)=O)c(C#N)c1` (stereo not drawn) [1-56, N-(4-tert-Butylbenzyl)-2-[3-cyano-4-(methylsulfonylamino)phenyl]propionamide] the Ki [1, 3] was 344 nM, the Ki [2] was 467 nM and the melting point was 102 to 105 °C.

With `C[C@@H](NC(=S)NC[C@H](COC(=O)C(C)(C)C)Cc1ccc(C(C)(C)C)cc1)c1ccc(NS(C)(=O)=O)cc1` [18-11, N-[(2R)-2-(4-tert-Butylbenzyl)-3-(pivaloyloxy)propyl]-N′-{(1R)-1-[4-(methylsulfonylamino)phenyl]ethyl}thiourea] the Ki [1] was 15.7 nM, the Ki [2] was 53 nM and the melting point was 85 to 87 °C.

`CC(C(=O)NCC(COC(=O)C(C)(C)C)Cc1ccc(C(C)(C)C)cc1)c1ccc(NS(C)(=O)=O)cc1` (stereo not drawn) [5-2, N-[2-(4-t-Butylbenzyl)-3-pivaloyloxypropyl]-2-[4-(methylsulfonylamino)phenyl]propionamide] gave a Ki [1, 3] of 55.2 nM, a Ki [2] of 52 nM and a melting point of 97 to 100 °C.

For `C[C@@H](C(=O)NC[C@H](COC(=O)C(C)(C)C)Cc1ccc(C(C)(C)C)cc1)c1ccc(NS(C)(=O)=O)c(F)c1` [6-12, N-[(2R)-2-(4-t-Butylbenzyl)-3-(pivaloyloxy)propyl]-(2R)-2-[3-fluoro-4-(methylsulfonylamino)phenyl]propionamide], the Ki [1, 3] was 53 nM, the Ki [2] was 30.3 nM and the melting point was 43 to 45 °C.

`Cc1ccc(C(=CCNC(=O)C(C)c2ccc(NS(C)(=O)=O)c(F)c2)c2ccc(C)cc2)cc1` (stereo not drawn) [4-26, N-[3,3-Di(4-methylphenyl)-2-propenyl]-2-[3-fluoro-4-(methylsulfonylamino)phenyl]propionamide] showed a Ki [1] of 36 nM, a Ki [2] of 8.03 nM and a melting point of 163 to 165 °C.

For `Cc1ccc(C=CC(=O)NC(C)c2ccc(NS(C)(=O)=O)c(F)c2)cc1C` (stereo not drawn) [24-5, N-{1-[3-Fluoro-4-(methylsulfonylamino)phenyl]ethyl}-3-(3,4-dimethylphenyl)-2-propenamide], the Ki [1] was 2520 nM, the Ki [2] was 1350 nM and the melting point was 212 to 213 °C.

`CC(NC(=O)C=Cc1ccc(Cl)cc1)c1ccc(NS(C)(=O)=O)c(F)c1` (stereo not drawn) [24-7, N-{1-[3-Fluoro-4-(methylsulfonylamino)phenyl]ethyl}-3-(4-chlorophenyl)-2-propenamide] gave a Ki [1] of 773 nM, a Ki [2] of 938 nM and a melting point of 219 to 221 °C.

With `COC(=O)c1cc(C(C)C(=O)NCc2ccc(C(C)(C)C)cc2)ccc1NS(C)(=O)=O` (stereo not drawn) [1-59, N-(4-tert-Butylbenzyl)-2-[3-(methoxycarbonyl)-4-(methylsulfonylamino)phenyl]propionamide] the Ki [1, 3] was 1610 nM, the Ki [2] was 951 nM and the melting point was 142 to 144 °C.

`CC(NC(=O)NCc1ccc(C(C)(C)C)cc1)c1ccc(NS(C)(=O)=O)cc1` (stereo not drawn) [23-1, N-(4-t-Butylbenzyl)-N′-{1-[4-(methylsulfonylamino)phenyl]ethyl}urea] gave a Ki [1] of 1190 nM, a Ki [2] of 544 nM and a melting point of 95 to 98 °C.

`C[C@H](C(=O)NC[C@H](COC(=O)C(C)(C)C)Cc1ccc(C(C)(C)C)cc1)c1ccc(NS(C)(=O)=O)c(F)c1` [6-9, N-[(2R)-2-(4-t-Butylbenzyl)-3-(pivaloyloxy)propyl]-(2S)-2-[3-fluoro-4-(methylsulfonylamino)phenyl]propionamide] showed a Ki [1] of 4.24 nM, a Ki [2] of 0.58 nM and a melting point of 44 to 46 °C.

`CC(NC(=S)NCC(COC(=O)C(C)(C)C)Cc1ccc(C(C)(C)C)cc1)c1ccc(NS(C)(=O)=O)c(F)c1` (stereo not drawn) [18-14, N-[2-(4-tert-Butylbenzyl)-3-(pivaloyloxy)propyl]-N′-{1-[3-fluoro-4-(methylsulfonylamino)phenyl]ethyl}thiourea] gave a Ki [1] of 37 nM, a Ki [2] of 9.34 nM and a melting point of 78 °C.

`COc1cc(C2(C(=O)NCc3ccc(C(C)(C)C)cc3)CC2)ccc1NS(C)(=O)=O` [12-9, N-(4-tert-Butylbenzyl)-1-[3-methoxy-4-(methylsulfonylamino)phenyl]cyclopropanecarboxamide] showed a Ki [1, 3] of 745 nM, a Ki [2] of 2250 nM and a melting point of 200 to 203 °C.

In the case of `CC(C(=O)NCc1ccc(Cl)cc1)c1ccc(NS(C)(=O)=O)c(F)c1` (stereo not drawn) [4-1, N-(4-Chlorobenzyl)-2-[3-fluoro-4-(methylsulfonylamino)phenyl]propionamide], the Ki [1, 3] is reported as 1060 nM, the Ki [2] is reported as 367 nM and the melting point is reported as 129 to 130 °C.

`CC(C(=O)NCC(c1ccccc1)c1ccccc1)c1ccc(NS(C)(=O)=O)c(F)c1` (stereo not drawn) [4-23, N-(2,2-Diphenylethyl)-2-[3-fluoro-4-(methylsulfonylamino)phenyl]propionamide] showed a Ki [1, 3] of 1700 nM, a Ki [2] of 2490 nM and a melting point of 129 °C.

`CC(NC(=O)Cc1ccc(C(C)(C)C)cc1)c1ccc(NS(C)(=O)=O)c(F)c1` (stereo not drawn) [24-1, N-{1-[3-Fluoro-4-(methylsulfonylamino)phenyl]ethyl}-3-(4-tert-butylphenyl)acetamide] showed a Ki [1, 3] of 2130 nM, a Ki [2] of 2220 nM and a melting point of 134 to 136 °C.

In the case of `C[C@@H](NC(=S)NCC(COC(=O)C(C)(C)C)Cc1ccc(C(C)(C)C)cc1)c1ccc(NS(C)(=O)=O)cc1` (stereo partly drawn) [18-10, N-[2-(4-tert-Butylbenzyl)-3-(pivaloyloxy)propyl]-N′-{(1R)-1-[4-(methylsulfonylamino)phenyl]ethyl}thiourea], the Ki [1] is reported as 9.95 nM, the Ki [2] is reported as 23.9 nM and the melting point is reported as 88 to 90 °C.

Compound `Cc1ccc(CC(CNC(=O)C(C)c2ccc(NS(C)(=O)=O)cc2)COC(=O)C(C)(C)C)cc1C` (stereo not drawn) [5-1, N-[2-(3,4-Dimethylbenzyl)-3-pivaloyloxypropyl]-2-[4-(methylsulfonylamino)phenyl]propionamide] has a Ki [1, 3] of 119 nM, a Ki [2] of 38 nM and a melting point of 112 to 115 °C.

For `C[C@H](C(=O)NC[C@@H](COC(=O)C(C)(C)C)Cc1ccc(C(C)(C)C)cc1)c1ccc(NS(C)(=O)=O)c(F)c1` [6-10, N-[(2S)-2-(4-t-Butylbenzyl)-3-(pivaloyloxy)propyl]-(2S)-2-[3-fluoro-4-(methylsulfonylamino)phenyl]propionamide], the Ki [1] was 6.58 nM, the Ki [2] was 10.9 nM and the melting point was 43 to 45 °C.

Compound `Cc1ccc(C(C)CC(=O)NC(C)c2ccc(NS(C)(=O)=O)c(F)c2)cc1C` (stereo not drawn) [24-8, N-{1-[3-Fluoro-4-(methylsulfonylamino)phenyl]ethyl}-3-(3,4-dimethylphenyl)butanamide] has a Ki [1] of 3530 nM, a Ki [2] of 988 nM and a melting point of 152 to 154 °C.

— patent publication US8642657B2 (Gruenenthal GmbH, priority 2003, dated 2014)
